The text below walks through data of patent US10206937B2, “Boronic acid derivatives and therapeutic uses thereof” (Qpex Biopharma, Inc., priority 2014, dated 2019).

Experiment [1] concerns the target T1, NDM-1 (Klebsiella pneumoniae, UniProt C7C422). Description: biochemical. As to conditions: cleavage of imipenem (100 uM) by NDM-1; read-out: Ki, Imipenem.
The target of experiment [2] is T2, VIM-1 (Pseudomonas aeruginosa, UniProt A0A0F7KYQ8).
T2 construct: made in house; host or cells: ECM6711 strain carrying pUCP24-VIM-1 plasmid; culture supernatant used unpurified
Put plainly: biochemical. To be noted: cleavage of nitrocefin (200 uM) by VIM-1 supernatant.

Experiment [3] has as its target T1, NDM-1. Put plainly: Inhibition of purified class B carbapenemase NDM-1 (Ki, imipenem substrate). It is filed as biochemical. As to conditions: NDM-1, substrate imipenem; read-out: Ki NDM-1, Imipenem.
Experiment [4] has as its target purified class A, C and D enzymes (Enterobacter cloacae, UniProt P05364). Type of experiment: biochemical. To be noted: purified P99/AmpC of ECL; nitrocefin reporter substrate.
Experiment [5] deals with purified class A, C and D enzymes (Escherichia coli, UniProt Q9L5C7). It is filed as biochemical. To be noted: purified CTX-M-14; nitrocefin reporter substrate.
Experiment [6] has as its target T3, purified class A, C and D enzymes (UniProt P0AD64, L31Q/G234S/E235K, species not given).
T3 construct: Ki (SHV-12, NCF); other: purified SHV-12; nitrocefin reporter substrate
T3 sequence (P0AD64 1-286 L31Q/G234S/E235K): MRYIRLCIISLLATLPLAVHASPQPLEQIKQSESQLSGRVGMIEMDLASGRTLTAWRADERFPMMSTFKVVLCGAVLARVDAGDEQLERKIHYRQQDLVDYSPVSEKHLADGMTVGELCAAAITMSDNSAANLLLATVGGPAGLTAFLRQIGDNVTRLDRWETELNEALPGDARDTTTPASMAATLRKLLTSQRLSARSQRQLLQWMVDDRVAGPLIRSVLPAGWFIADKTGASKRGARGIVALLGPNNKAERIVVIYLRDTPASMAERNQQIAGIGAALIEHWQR
It is filed as biochemical. To be noted: read-out: Ki (SHV-12, NCF); purified SHV-12; nitrocefin reporter substrate.

Experiment [7] deals with T4, purified class A, C and D enzymes (UniProt Q6XEC0).
T4 construct: rows headed: Ki (OXA-48, NCF); other: purified OXA-48; nitrocefin reporter substrate
It is filed as biochemical. As to conditions: read-out: Ki (OXA-48, NCF); purified OXA-48; nitrocefin reporter substrate.

Experiment [8] deals with T5, purified class A, C and D enzymes (UniProt Q9F663).
T5 construct: rows headed: Ki (KPC-2, NCF); other: purified KPC-2; nitrocefin reporter substrate
It is filed as biochemical. To be noted: read-out: Ki (KPC-2, NCF); purified KPC-2; nitrocefin reporter substrate.

purified class A, C and D enzymes (Escherichia coli, UniProt Q9L5C7), sequence (Q9L5C7 entry or part of it): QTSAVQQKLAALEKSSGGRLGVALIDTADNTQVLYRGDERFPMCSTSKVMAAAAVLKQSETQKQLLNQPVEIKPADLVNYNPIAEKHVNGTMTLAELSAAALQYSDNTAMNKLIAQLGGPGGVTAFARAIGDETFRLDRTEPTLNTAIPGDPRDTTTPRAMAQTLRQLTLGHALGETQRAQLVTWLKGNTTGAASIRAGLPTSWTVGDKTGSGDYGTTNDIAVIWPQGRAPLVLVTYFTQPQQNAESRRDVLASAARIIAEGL
purified class A, C and D enzymes (Enterobacter cloacae, UniProt P05364), sequence (P05364 21-381): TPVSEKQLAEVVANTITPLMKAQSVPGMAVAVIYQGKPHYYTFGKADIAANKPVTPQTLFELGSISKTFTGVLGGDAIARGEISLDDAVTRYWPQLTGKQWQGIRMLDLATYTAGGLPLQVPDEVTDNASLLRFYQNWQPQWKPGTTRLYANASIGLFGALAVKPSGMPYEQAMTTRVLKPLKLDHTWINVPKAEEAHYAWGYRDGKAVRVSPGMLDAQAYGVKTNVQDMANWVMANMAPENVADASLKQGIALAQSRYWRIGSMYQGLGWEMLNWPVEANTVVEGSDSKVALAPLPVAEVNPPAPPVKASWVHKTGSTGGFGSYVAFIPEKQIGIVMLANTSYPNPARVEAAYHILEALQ
T1 sequence (C7C422 29-270, looked up, species assumed): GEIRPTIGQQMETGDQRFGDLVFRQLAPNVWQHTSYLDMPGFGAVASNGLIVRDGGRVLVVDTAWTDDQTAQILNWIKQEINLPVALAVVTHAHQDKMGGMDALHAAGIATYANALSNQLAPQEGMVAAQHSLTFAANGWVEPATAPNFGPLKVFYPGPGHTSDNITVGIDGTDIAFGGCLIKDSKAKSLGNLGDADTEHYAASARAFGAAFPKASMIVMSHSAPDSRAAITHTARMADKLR

As to `COc1ccc2c(c1C(=O)O)OB(O)[C@@H](Sc1cncs1)C2` [Compound 69, (3R)-2-hydroxy-7-methoxy-3-thiazol-5-ylsulfanyl-3,4-dihydro-1,2-benzoxaborinine-8-carboxylic acid], the Ki in experiment [1] was over 100 nM; in experiment [3] it was over 100 nM; in experiment [6] it was under 100 nM; in experiment [7], under 100 nM; in experiment [8], under 100 nM. In experiment [2], this molecule yielded an IC50 of under 1000 nM. Further, the “Ki (P99/AmpC of ECL, NCF)” value in experiment [4] is “Y (0.1 μM to 1 μM)”. Further, in experiment [5], the “Ki (CTX-M-14, NCF)” value is given as “X (Less than 0.1 μM)”.

With `COc1ccc2c(c1C(=O)O)OB(O)[C@@H](Sc1nnc[nH]1)C2` [Compound 70, (3R)-2-hydroxy-7-methoxy-3-(4H-1,2,4-triazol-3-ylsulfanyl)-3,4-dihydro-1,2-benzoxaborinine-8-carboxylic acid], the Ki was 10 to 100 nM in experiment [1]; 10 to 100 nM in experiment [3]; under 100 nM in experiment [6]; under 100 nM in experiment [7]; 100 to 1000 nM in experiment [8]. The molecule also showed an IC50 in experiment [2] of under 1000 nM. Also, the “Ki (P99/AmpC of ECL, NCF)” value in experiment [4] is listed as “Y (0.1 μM to 1 μM)”. The “Ki (CTX-M-14, NCF)” value in experiment [5] is “X (Less than 0.1 μM)”.

Regarding `COc1ccc2c(c1C(=O)O)OB(O)[C@@H](Sc1nnc(CN3CCNCC3)n1N)C2` [Compound 71, (3R)-3-[[4-amino-5-(piperazin-1-ylmethyl)-1,2,4-triazol-3-yl]sulfanyl]-2-hydroxy-7-methoxy-3,4-dihydro-1,2-benzoxaborinine-8-carboxylic acid], the inhibition constant (Ki) in experiment [1] is 10 to 100 nM; in experiment [3] it was 10 to 100 nM; in experiment [6], under 100 nM; in experiment [7] it was 100 to 1000 nM; in experiment [8] it was 100 to 1000 nM. The molecule also displayed an IC50 in experiment [2] of under 1000 nM. In addition, in experiment [4], the “Ki (P99/AmpC of ECL, NCF)” value is reported as “Z (Greater than 1 μM)”. For the same molecule, the “Ki (CTX-M-14, NCF)” value in experiment [5] is on record as “X (Less than 0.1 μM)”.

Regarding `COc1ccc2c(c1C(=O)O)OB(O)[C@@H](SCCN1CCNCC1)C2` [Compound 72, (3R)-2-hydroxy-7-methoxy-3-(2-piperazin-1-ylethylsulfanyl)-3,4-dihydro-1,2-benzoxaborinine-8-carboxylic acid], the Ki is over 100 nM in experiment [1]; over 100 nM in experiment [3]; under 100 nM in experiment [6]; under 100 nM in experiment [7]; under 100 nM in experiment [8]. This molecule had an IC50 in experiment [2] of under 1000 nM. For the same molecule, the “Ki (P99/AmpC of ECL, NCF)” value in experiment [4] is “Y (0.1 μM to 1 μM)”. For the same molecule, in experiment [5], the “Ki (CTX-M-14, NCF)” value was “X (Less than 0.1 μM)”.

As for `COc1ccc2c(c1C(=O)O)OB(O)[C@@H](Sc1nncn1CCCCN)C2` [Compound 73, (3R)-3-[[4-(4-aminobutyl)-1,2,4-triazol-3-yl]sulfanyl]-2-hydroxy-7-methoxy-3,4-dihydro-1,2-benzoxaborinine-8-carboxylic acid], the Ki in experiment [1] was 10 to 100 nM; in experiment [3], 10 to 100 nM; in experiment [6] it was under 100 nM; in experiment [7], under 100 nM; in experiment [8], 100 to 1000 nM. In experiment [2], this molecule returned an IC50 of under 1000 nM. Moreover, in experiment [4], the “Ki (P99/AmpC of ECL, NCF)” value was “Z (Greater than 1 μM)”. Moreover, the “Ki (CTX-M-14, NCF)” value in experiment [5] is “X (Less than 0.1 μM)”.

On to `COc1ccc2c(c1C(=O)O)OB(O)[C@@H](Sc1nc(N)ns1)C2` [Compound 74, (3R)-3-[(3-amino-1,2,4-thiadiazol-5-yl)sulfanyl]-2-hydroxy-7-methoxy-3,4-dihydro-1,2-benzoxaborinine-8-carboxylic acid], for which the inhibition constant (Ki) in experiment [1] is over 100 nM; in experiment [3], over 100 nM; in experiment [6] it was under 100 nM; in experiment [7] it was under 100 nM; in experiment [8] it was under 100 nM. The molecule also yielded an IC50 in experiment [2] of under 1000 nM. Also, the “Ki (P99/AmpC of ECL, NCF)” value in experiment [4] is listed as “Y (0.1 μM to 1 μM)”. Also, in experiment [5], the “Ki (CTX-M-14, NCF)” value was “X (Less than 0.1 μM)”.

Turning to `COc1ccc2c(c1C(=O)O)OB(O)[C@@H](Sc1ncns1)C2` [Compound 75, (3R)-2-hydroxy-7-methoxy-3-(1,2,4-thiadiazol-5-ylsulfanyl)-3,4-dihydro-1,2-benzoxaborinine-8-carboxylic acid], the Ki was over 100 nM in experiment [1]; over 100 nM in experiment [3]; under 100 nM in experiment [6]; under 100 nM in experiment [7]; under 100 nM in experiment [8]. In addition, the IC50 in experiment [2] was under 1000 nM. The “Ki (P99/AmpC of ECL, NCF)” value in experiment [4] was “Y (0.1 μM to 1 μM)”. For the same molecule, in experiment [5], the “Ki (CTX-M-14, NCF)” value is reported as “X (Less than 0.1 μM)”.

With `NCCOc1ccc2c(c1C(=O)O)OB(O)[C@@H](Sc1nnc(N)s1)C2` [Compound 79, (3R)-7-(2-aminoethoxy)-3-[(5-amino-1,3,4-thiadiazol-2-yl)sulfanyl]-2-hydroxy-3,4-dihydro-1,2-benzoxaborinine-8-carboxylic acid], the Ki in experiment [1] was over 100 nM; in experiment [3], over 100 nM; in experiment [6] it was under 100 nM; in experiment [7], under 100 nM; in experiment [8], over 1000 nM. Besides, in experiment [2], the IC50 was at least 1000 nM. The “Ki (P99/AmpC of ECL, NCF)” value in experiment [4] is on record as “Y (0.1 μM to 1 μM)”. Also, the “Ki (CTX-M-14, NCF)” value in experiment [5] is “X (Less than 0.1 μM)”.

As for `NC(=O)COc1ccc2c(c1C(=O)O)OB(O)[C@@H](Sc1nnc(N)s1)C2` [Compound 80, (3R)-7-(2-amino-2-oxo-ethoxy)-3-[(5-amino-1,3,4-thiadiazol-2-yl)sulfanyl]-2-hydroxy-3,4-dihydro-1,2-benzoxaborinine-8-carboxylic acid], the Ki in experiment [1] is over 100 nM; in experiment [3], over 100 nM; in experiment [6], under 100 nM; in experiment [7], under 100 nM; in experiment [8], 100 to 1000 nM. This molecule displayed an IC50 in experiment [2] of under 1000 nM. In experiment [4], the “Ki (P99/AmpC of ECL, NCF)” value is “Y (0.1 μM to 1 μM)”. Further, in experiment [5], the “Ki (CTX-M-14, NCF)” value is on record as “X (Less than 0.1 μM)”.

For the molecule `Nc1nnc(S[C@H]2Cc3ccc(OCC(=O)NC4CNC4)c(C(=O)O)c3OB2O)s1` [Compound 81, (3R)-3-[(5-amino-1,3,4-thiadiazol-2-yl)sulfanyl]-7-[2-(azetidin-3-ylamino)-2-oxo-ethoxy]-2-hydroxy-3,4-dihydro-1,2-benzoxaborinine-8-carboxylic acid], the Ki in experiment [1] is over 100 nM; in experiment [3], over 100 nM; in experiment [6], under 100 nM; in experiment [7], under 100 nM; in experiment [8] it was over 1000 nM. This molecule also registered an IC50 in experiment [2] of at least 1000 nM. The “Ki (P99/AmpC of ECL, NCF)” value in experiment [4] is “Y (0.1 μM to 1 μM)”. In experiment [5], the “Ki (CTX-M-14, NCF)” value is given as “X (Less than 0.1 μM)”.

For the molecule `COc1ccc2c(c1C(=O)O)OB(O)[C@@H](Sc1nc(N)n[nH]1)C2` [Compound 82, (3R)-3-[(3-amino-1H-1,2,4-triazol-5-yl)sulfanyl]-2-hydroxy-7-methoxy-3,4-dihydro-1,2-benzoxaborinine-8-carboxylic acid], the Ki in experiment [1] is under 10 nM; in experiment [3], under 10 nM; in experiment [6] it was under 100 nM; in experiment [7], under 100 nM; in experiment [8] it was 100 to 1000 nM. The IC50 in experiment [2] is under 1000 nM. Moreover, in experiment [4], the “Ki (P99/AmpC of ECL, NCF)” value is “Y (0.1 μM to 1 μM)”. Also, the “Ki (CTX-M-14, NCF)” value in experiment [5] was “X (Less than 0.1 μM)”.

For `CCOc1ccc2c(c1C(=O)O)OB(O)[C@@H](Sc1nnc(N)s1)C2` [Compound 83, (3R)-3-[(5-amino-1,3,4-thiadiazol-2-yl)sulfanyl]-7-ethoxy-2-hydroxy-3,4-dihydro-1,2-benzoxaborinine-8-carboxylic acid], the Ki was under 10 nM in experiment [1]; under 10 nM in experiment [3]; under 100 nM in experiment [6]; under 100 nM in experiment [7]; 100 to 1000 nM in experiment [8]. The molecule also showed an IC50 in experiment [2] of under 1000 nM. Further, in experiment [4], the “Ki (P99/AmpC of ECL, NCF)” value is recorded as “Y (0.1 μM to 1 μM)”. In addition, in experiment [5], the “Ki (CTX-M-14, NCF)” value is “X (Less than 0.1 μM)”.

As for `Nc1nnc(S[C@H]2Cc3ccc(OC(F)F)c(C(=O)O)c3OB2O)s1` [Compound 84, (3R)-3-[(5-amino-1,3,4-thiadiazol-2-yl)sulfanyl]-7-(difluoromethoxy)-2-hydroxy-3,4-dihydro-1,2-benzoxaborinine-8-carboxylic acid], the Ki in experiment [1] is 10 to 100 nM; in experiment [3] it was 10 to 100 nM; in experiment [6] it was under 100 nM; in experiment [7] it was under 100 nM; in experiment [8], 100 to 1000 nM. In addition, the IC50 in experiment [2] was under 1000 nM. For the same molecule, in experiment [4], the “Ki (P99/AmpC of ECL, NCF)” value is “Y (0.1 μM to 1 μM)”. Besides, the “Ki (CTX-M-14, NCF)” value in experiment [5] is listed as “X (Less than 0.1 μM)”.

By Ki is commonly meant a dissociation constant, usually derived from enzyme kinetics or from competition with a known ligand. The IC50 is the point on the concentration scale where inhibition reaches its midpoint. A lower IC50 goes with higher potency.
